Where a name gives a salt, the structure may show the parent alone.
Columns and labels:
NOD/SCID mice [1] = assay: Bloody diarrhea evaluation by daily naked-eye observation; format: in vivo; details: oral CPT-11 50 mg/Kg and/or silychristin 10 mg/Kg
Experimental: (§1) To inoculate tumor, HT29 cells (1×10^6 cells per injection) were injected subcutaneously to lab animals to generate s.c. tumors on day 1, which were allowed to grow to about 5 mm in diameter. Two sets of experiments were conducted.
(§2) In the first set of experiment, effects of silymarin on the reduction of CPT-11 induced bloody stool were investigated. […] At the end of the experiments, the animals were sacrificed and colon tissues from each animals were stained and used in histological analysis.

[2] = Oral availability of CPT-11: blood levels of CPT-11 and SN-38 by HPLC in mice bearing HT29 xenograft tumors; format: in vivo, NOD/SCID mice; details: oral CPT-11 40 mg/Kg alone, 4 hrs after ingestion, FIG. 1A
Experimental: as §1
In the second set of experiment, oral availability of CPT-11 was evaluated. The animals were randomly assigned to 3 groups, in which animals in group 1 (N=5) were on normal diet; animals in group 2 (N=5) received oral CPT-11 treatment (40 mg/Kg), and animals in group 3 (N=5) received a dose of dose of UDCA (20 mg/Kg) on day 1, an hour later, one dose of CPT-11 (40 mg/Kg) and one dose of silymarin (100 mg/Kg) were given. Blood samples were respectively taken at 1, 4, 8 hrs after the combined treatment of CPT-11 and on days 4, and 8; and the level of SN-38 (i.e., an active metabolite of CPT-11) was measured by HPLC. The body weight (BW) of each animal was measured daily.
The animals bearing xenografted s.c. colon tumors were randomly assigned into 3 groups, in which group 1 received no treatment, group 2 received one dose of oral treatment of CPT-11 (40 mg/Kg), and group 3 received UDCA (20 mg/Kg), CPT-11 (40 mg/Kg) and silymarin (100 mg/Kg) via oral ingestion in accordance with procedures described in the “Materials and methods” section. […]

NOD/SCID mice [3] = assay: Histological analysis (H&E) of colon tissues after oral CPT-11 treatment; format: in vivo; details: oral CPT-11 50 mg/Kg, with or without silychristin 10 mg/Kg; FIG. 2
Experimental: as §1, §2

human βG (hβG) = molecular target: T1, human βG (hβG) (Homo sapiens, UniProt P08236); assay: Beta-glucuronidase activity with fluorogenic substrate MUG, human enzyme; format: biochemical; details: 8 μM; FIG. 3B
T1 sequence (P08236 23-651): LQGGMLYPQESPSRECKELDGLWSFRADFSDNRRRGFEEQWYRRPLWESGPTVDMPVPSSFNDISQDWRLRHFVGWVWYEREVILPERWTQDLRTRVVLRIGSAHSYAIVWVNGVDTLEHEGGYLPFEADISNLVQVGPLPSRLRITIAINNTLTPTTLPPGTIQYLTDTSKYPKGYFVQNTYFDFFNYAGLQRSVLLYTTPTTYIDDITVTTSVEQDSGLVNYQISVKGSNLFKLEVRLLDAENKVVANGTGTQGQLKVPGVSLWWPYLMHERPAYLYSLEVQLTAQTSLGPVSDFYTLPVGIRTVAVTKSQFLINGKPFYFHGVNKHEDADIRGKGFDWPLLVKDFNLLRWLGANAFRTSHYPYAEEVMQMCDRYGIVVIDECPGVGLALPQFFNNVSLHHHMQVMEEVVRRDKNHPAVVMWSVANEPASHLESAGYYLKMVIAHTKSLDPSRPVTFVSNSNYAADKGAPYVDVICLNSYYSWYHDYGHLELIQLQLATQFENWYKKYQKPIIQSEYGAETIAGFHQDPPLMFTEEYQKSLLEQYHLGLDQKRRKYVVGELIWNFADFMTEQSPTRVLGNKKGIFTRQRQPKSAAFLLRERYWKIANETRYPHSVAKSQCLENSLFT
Experimental: (§3) The βG activity in solution was determined with the fluorogenic substrate 4-methylumbellifery β-D-glucuronide (MUG), in which the non-fluorescent MUG would give rise to glucuronic acid and a highly fluorescent product, 4-methylumbelliferone (4-MU), at higher pH, after being converted by βG. The reaction can be quenched by the addition of a basic solution of sodium carbonate, and pH may be adjusted to quantitate the fluorescent signals. […] After 10 minutes, the assays were quenched at 15 second intervals by adding 1.9 ml of the carbonate stopping buffer. The samples were subject to fluorescence measurement, and the data was converted to nmol MUG hydrolyzed as an indication of GUS enzyme activity.
(§4) Silymarin is known to be a mixture of flavonolignans extracted from blessed milk thistle (Silybum marianum). […] Results are illustrated in FIGS. 3A and 3B.

E. Coli βG (eβG) = E. Coli βG (eβG) (Escherichia coli, UniProt P05804); assay: Beta-glucuronidase activity with fluorogenic substrate MUG, E. Coli enzyme; format: biochemical; details: FIG. 3A
E. Coli βG (eβG), sequence (P05804 whole entry): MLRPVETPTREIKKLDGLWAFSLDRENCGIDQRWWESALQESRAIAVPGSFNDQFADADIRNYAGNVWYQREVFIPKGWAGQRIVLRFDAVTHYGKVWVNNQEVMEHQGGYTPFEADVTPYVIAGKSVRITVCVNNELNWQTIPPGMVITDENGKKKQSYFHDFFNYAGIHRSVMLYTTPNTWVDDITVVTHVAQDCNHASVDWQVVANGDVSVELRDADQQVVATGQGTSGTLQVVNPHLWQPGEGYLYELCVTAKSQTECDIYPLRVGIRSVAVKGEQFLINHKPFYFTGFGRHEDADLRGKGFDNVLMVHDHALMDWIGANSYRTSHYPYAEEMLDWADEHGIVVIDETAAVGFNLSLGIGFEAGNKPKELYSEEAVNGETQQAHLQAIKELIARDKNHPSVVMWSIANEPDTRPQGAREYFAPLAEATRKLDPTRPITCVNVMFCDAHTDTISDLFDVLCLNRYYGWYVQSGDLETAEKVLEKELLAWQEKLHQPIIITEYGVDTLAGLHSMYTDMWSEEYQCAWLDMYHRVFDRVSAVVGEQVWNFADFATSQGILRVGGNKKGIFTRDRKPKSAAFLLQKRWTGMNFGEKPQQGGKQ
Experimental: as §3, §4

normal cells HEK-293 = assay: Cell viability assay (MTS) on normal cells; format: cell-based, human; details: 100 μM; FIG. 4
Experimental: Cell line used in the present disclosure were human colon carcinoma cell line HT29, and human embryonic kidney cell line HEK-293. HT29 cells were cultured and maintained in Dulbecco's modified Eagle media (DMEM) supplemented with 10% heat inactivated fetal bovine serum (FBS), 50 units/mL penicillin G, 50 μg/mL streptomycin (pH 7.4), while HEK-293 cells were cultured in complete SFMII growth medium supplemented with 4mM L-glutamine. Both cell lines were maintained in humidified environment comprising 5% CO2/95% air at 37° C.
Cell were cultured at a density of 1.0×10^5 cells/well in 96-well round-bottom plates (Falcon, UK) containing 200 μL of culturing medium. Cells were maintained for two days at 37° C. in a humidified, 5% CO2 atmosphere. The proliferation rate of the cells was determined by MTS assay (CellTiter 96 aqueous one-solution cell proliferation assay; Promega, Wis., USA). Forty microliters of CellTiter 96 aqueous one-solution were added to each well. After incubation for 4hrs, the UV absorbance of the solution was measured at a wavelength of 490 nm. All MTS assays were performed in triplicate.

Row | Structure (SMILES) | number of animals that exhibited bloody stool / bloody diarrhea (NOD/SCID mice [1]) | blood level of CPT-11 [2] | colon tissue damage (morphology and integrity of epithelial cells), H&E histology (NOD/SCID mice [3]) | effect on the activity of hβG (human βG (hβG)) | inhibition of eβG activity (E. Coli βG (eβG); 8 μM) [%] | eβG activity (E. Coli βG (eβG); 40 μM) | effect on normal cells' activities (viability of HEK-293) (normal cells HEK-293)
1 | CCc1c2c(nc3ccc(OC(=O)N4CCC(N5CCCCC5)CC4)cc13)-c1cc3c(c(=O)n1C2)COC(=O)[C@]3(O)CC [CPT-11, Irinotecan hydrochloride] | 4 animals | undetectable level | severe damage | – | – | – | –
2 | COc1cc([C@@H]2Oc3c(O)cc([C@H]4Oc5cc(O)cc(O)c5C(=O)[C@@H]4O)cc3[C@H]2CO)ccc1O [silychristin] | none | – | – | without affecting | ~80 | negligible level | did not adversely affect

From patent publication US20170246190A1, “METHODS AND FORMULATION FOR IMPROVING ORAL AVAILABILITY OF CPT-11 WHILE REDUCING CPT-11 INDUCED GASTROINTESTINAL TOXICITY IN CANCER THERAPY” (Johnpro Biotech Inc., priority 2014, published 2017)
